One experiment has as its system ISR pathway (ATF4 translation). The experiment can be described thus: ATF4 Nano Luciferase reporter integrated stress response (ISR) assay in H4 ATF4-NLuc cells. The note with it: H4 ATF4-NLuc (clone 17) cells; compound 30 minutes, then 50 um sodium arsenite for 6 hours; luminescence readout.
What is called IC50 is the concentration at which inhibition is half-maximal. Regarding `O=C(NC12CC(c3nnc([C@H]4C[C@@H](OC(F)(F)F)C4)o3)(C1)C2)c1ccc2cc(F)ccc2n1` [Example 189, 6-fluoro-N-[1-[5-[3-cis-(trifluoromethoxy)cyclobutyl]-1,3,4-oxadiazol-2-yl]-3-bicyclo[1.1.1]pentanyl]quinoline-2-carboxamide], the IC50 amounted to 28.5 nM.

Still in this experiment, the particulars now being: Homo sapiens, H4 ATF4-NLuc (clone 17) cells; compound 30 minutes, then 50 um sodium arsenite for 6 hours; luminescence readout.
Consider `O=C(COc1ccc(Cl)c(F)c1)NC12CC(n3cnc([C@H]4C[C@@H](OC(F)(F)F)C4)c3)(C1)C2` [Example 61, 2-(4-chloro-3-fluoro-phenoxy)-N-[3-[4-[3-cis-(trifluoromethoxy)cyclobutyl]imidazol-1-yl]-1-bicyclo[1.1.1]pentanyl]acetamide], for which the IC50 was 1.9 nM.

For `O=C(COc1ccc(C(F)(F)F)nc1)NC12CC(n3cnc(-c4ccc(F)c(F)c4)c3)(C1)C2` [Example 161], 13.4 nM corresponded to half-maximal inhibition (IC50).

Take `O=C(NC12CC(c3nnc([C@H]4C[C@@H](OC(F)(F)F)C4)o3)(C1)C2)c1ccc2cc(Cl)ccc2n1` [Example 169]: the IC50 was 3.8 nM.

On to `O=C(CO[C@H]1C[C@@H](OC(F)(F)F)C1)NC12CC(n3cnc(-c4ccc(C(F)(F)F)cc4F)c3)(C1)C2` [Example 148], for which half-maximal inhibition (IC50) required 2.6 nM.

The experiment is the same for the next values; noted with them: Homo sapiens, read-out: Activity (IC50).
For the compound `CC(C)(C)[Si](C)(C)O[C@H]1C[C@@H](c2nnc(C34CC(NC(=O)COc5ccc(Cl)cc5)(C3)C4)o2)C1` [Example 260], the IC50 is under 1000 nM.

Staying with this experiment, now noted: Homo sapiens, read-out: Activity (IC50), H4 ATF4-NLuc (clone 17) cells; compound 30 minutes, then 50 um sodium arsenite for 6 hours; luminescence readout.
Take `COC(=O)c1cc(C(F)(F)F)ccc1-c1cn(C23CC(NC(=O)CO[C@H]4C[C@@H](OC(F)(F)F)C4)(C2)C3)cn1` [Example 273]: the IC50 is under 1000 nM.

As to `O=C(COc1ccc(Cl)c(F)c1)NC12CC(n3cnc([C@H]4C[C@@H](OC(F)(F)F)C4)c3)(C1)C2` [Example 61, 2-(4-chloro-3-fluoro-phenoxy)-N-[3-[4-[3-cis-(trifluoromethoxy)cyclobutyl]imidazol-1-yl]-1-bicyclo[1.1.1]pentanyl]acetamide], the IC50 is under 1000 nM.

Consider `O=C(CO[C@H]1C[C@@H](OC(F)(F)F)C1)NC12CC(n3cnc(-c4cnc(C(F)(F)F)nc4)c3)(C1)C2` [Example 231], for which the IC50 is under 1000 nM.

As for `O=C(NC12CC(c3nnc([C@H]4C[C@@H](OC(F)(F)F)C4)o3)(C1)C2)c1ccc2cc(Cl)c(F)cc2n1` [Example 196], the IC50 was under 1000 nM.

For the compound `O=C(NC12CC(c3nnc([C@H]4C[C@@H](OC(F)(F)F)C4)o3)(C1)C2)c1cn2cc(Cl)ccc2n1` [Example 103, 6-chloro-N-[3-[5-[3-cis-(trifluoromethoxy)cyclobutyl]-1,3,4-oxadiazol-2-yl]-1-bicyclo[1.1.1]pentanyl]imidazo[1,2-a]pyridine-2-carboxamide], the IC50 was under 1000 nM.

As for `O=C(COc1ccc(Cl)cc1)NC12CC(c3nnc(C4CCCO4)o3)(C1)C2` (stereo not drawn) [Example 2, 2-(4-Chlorophenoxy)-N-[3-(5-tetrahydrofuran-2-yl-1,3,4-oxadiazol-2-yl)-1-bicyclo[1.1.1]pentanyl]acetamide], the IC50 is 1000 to 10000 nM.

For the compound `O=C(COc1ccc(Cl)c(F)c1)NC12CC(c3nnc(C4CC4)o3)(C1)C2` [Example 17, 2-(4-chloro-3-fluoro-phenoxy)-N-[3-(5-cyclopropyl-1,3,4-oxadiazol-2-yl)-1-bicyclo[1.1.1]pentanyl]acetamide], the IC50 was under 1000 nM.

In the case of `O=C(CO[C@H]1C[C@@H](OC(F)(F)F)C1)NC12CC(c3nnc(-c4cncc(F)c4)o3)(C1)C2` [Example 73, N-[1-[5-(5-fluoro-3-pyridyl)-1,3,4-oxadiazol-2-yl]-3-bicyclo[1.1.1]pentanyl]-2-[3-cis-(trifluoromethoxy)cyclobutoxy]acetamide], the IC50 fell in the range of 1000 to 10000 nM.

With `O=C(COc1ccc(Cl)c(F)c1)NC12CC(c3nnc(CN4CC(C(F)(F)F)C4)o3)(C1)C2` [Example 126, 2-(4-chloro-3-fluoro-phenoxy)-N-[3-[5-[[3-(trifluoromethyl)azetidin-1-yl]methyl]-1,3,4-oxadiazol-2-yl]-1-bicyclo[1.1.1]pentanyl]acetamide], the IC50 is under 1000 nM.

For `O=C(COc1ccc(Cl)c(F)c1)NC12CC(c3nnc(C4(F)CN(CC(F)(F)F)C4)o3)(C1)C2` [Example 93, 2-(4-chloro-3-fluoro-phenoxy)-N-[3-[5-[3-fluoro-1-(2,2,2-trifluoroethyl)azetidin-3-yl]-1,3,4-oxadiazol-2-yl]-1-bicyclo[1.1.1]pentanyl]acetamide], the IC50 was under 1000 nM.

In the case of `CC(COC(F)(F)F)OCC(=O)NC12CC(n3cnc(-c4ccc(Cl)c(F)c4)c3)(C1)C2` (stereo not drawn) [Example 262], the IC50 was under 1000 nM.

As to `O=C(NC12CC(c3nnc([C@H]4C[C@@H](OC(F)(F)F)C4)o3)(C1)C2)c1nc2ccc(Cl)cc2s1` [Example 192], the IC50 was under 1000 nM.

For the compound `O=C(COc1ccc(C(F)(F)F)nc1)NC12CC(n3cnc(-c4ccc(F)c(F)c4)c3)(C1)C2` [Example 161], the half-maximal inhibitory concentration (IC50) is under 1000 nM.

Turning to `O=C(CO[C@H]1C[C@@H](OC(F)(F)F)C1)NC12CC(n3cnc(-c4cccc(C(F)(F)F)c4)c3)(C1)C2` [Example 134], the IC50 is under 1000 nM.

For `N#C[C@H]1C[C@@H](n2ncc(C34CC(NC(=O)COc5ccc(Cl)c(F)c5)(C3)C4)n2)C1` (relative stereo) [Example 36, 2-(4-chloro-3-fluorophenoxy)-N-(3-(2-((cis)-3-cyanocyclobutyl)-2H-1,2,3-triazol-4-yl)bicyclo[1.1.1]pentan-1-yl)acetamide], the IC50 is under 1000 nM.

On to `O=C(CO[C@H]1C[C@@H](OC(F)(F)F)C1)NC12CC(c3nnc(-c4ccc(Cl)c(F)c4)o3)(C1)C2` [Example 12, N-[3-[5-(4-chloro-3-fluoro-phenyl)-1,3,4-oxadiazol-2-yl]-1-bicyclo[1.1.1]pentanyl]-2-[cis-3-(trifluoromethoxy)cyclobutoxy]acetamide], for which the IC50 was under 1000 nM.

As for `O=C(NC12CC(c3nnc([C@H]4C[C@@H](OC(F)(F)F)C4)o3)(C1)C2)c1ccc2cc(Cl)ccc2n1` [Example 169], the IC50 is under 1000 nM.

As to `O=C(NC12CC(c3nnc([C@H]4C[C@@H](OC(F)(F)F)C4)o3)(C1)C2)c1ccc2ccccc2n1` [Example 187], the IC50 is under 1000 nM.

With `O=C(COc1ccc(Cl)c(F)c1)NC12CC(n3cnc(CC4CCC4)c3)(C1)C2` [Example 48], the IC50 was under 1000 nM.

On to `O=C(NC12CC(n3cnc(-c4ccc(F)c(F)c4)c3)(C1)C2)[C@H]1C[C@H](OCCOC(F)(F)F)C1` [Example 249], for which the IC50 was under 1000 nM.

Take `Cc1nnc(C23CC(NC(=O)COc4ccc(Cl)c(F)c4)(C2)C3)o1` [Example 40, 2-(4-chloro-3-fluoro-phenoxy)-N-[1-(5-methyl-1,3,4-oxadiazol-2-yl)-3-bicyclo[1.1.1]pentanyl]acetamide]: the IC50 was under 1000 nM.

As for `O=C(CO[C@H]1C[C@@H](OC(F)(F)F)C1)NC12CC(n3cnc(-c4ccc(F)cc4F)c3)(C1)C2` [Example 135], the IC50 is under 1000 nM.

For `O=C(CCc1ccc(Cl)cn1)NC12CC(c3nnc([C@H]4C[C@@H](OC(F)(F)F)C4)o3)(C1)C2` [Example 56], the IC50 lay in the range of 1000 to 10000 nM.

For the compound `CCO[C@H]1C[C@@H](OCC(=O)NC23CC(n4cnc(-c5ccc(Cl)c(F)c5)c4)(C2)C3)C1` [Example 240], the IC50 is under 1000 nM.

On to `O=C(CO[C@H]1C[C@@H](OC(F)(F)F)C1)NC12CC(n3cnc(-c4ccc(C(F)(F)F)cc4F)c3)(C1)C2` [Example 148], for which the IC50 is under 1000 nM.

On to `O=C(CO[C@H]1C[C@@H](OC(F)(F)F)C1)NC12CC(c3ncn(-c4ccc(Cl)c(F)c4)n3)(C1)C2` [Example 239], for which the IC50 was under 1000 nM.

For `O=C(COc1ccc(Cl)c(F)c1)NC12CC(N3CC(C4CN(CC(F)(F)F)C4)OC3=O)(C1)C2` (stereo not drawn) [Example 224], the IC50 was under 1000 nM.

As to `O=C(NC12CC(c3nnc([C@H]4C[C@@H](OC(F)(F)F)C4)o3)(C1)C2)C(O)Cc1ccc(Cl)cc1` (stereo partly drawn) [Example 253], the IC50 is under 1000 nM.

For the compound `O=C(CO[C@H]1C[C@@H](OC(F)(F)F)C1)NC12CC(c3cc(-c4ccc(Cl)cc4)no3)(C1)C2` [Example 251], the IC50 was under 1000 nM.

The same experiment, now with this note: read-out: Activity (IC50); H4 ATF4-NLuc (clone 17) cells; compound 30 minutes, then 50 um sodium arsenite for 6 hours; luminescence readout.
In the case of `O=C(NC12CC(c3nnc([C@H]4C[C@@H](OC(F)(F)F)C4)o3)(C1)C2)c1ccc2cc(F)ccc2n1` [Example 189, 6-fluoro-N-[1-[5-[3-cis-(trifluoromethoxy)cyclobutyl]-1,3,4-oxadiazol-2-yl]-3-bicyclo[1.1.1]pentanyl]quinoline-2-carboxamide], the IC50 was under 1000 nM.

Source of the values: patent US11851440B2, “Modulators of eukaryotic initiation factor 2B, compositions and methods” (Denali Therapeutics Inc., priority 2017, dated 2023).
